Laboratory results from patent US10232043B2, “Photoactivated molecules for light-induced modulation of the activity of electrically excitable cells and methods of using the same” (UNIVERSITY OF SOUTHERN CALIFORNIA, priority 2015, dated 2019).

Assays:
[1] = test system: cell lines and primary cells; experiment: Cell tolerance to RubpyC17 incubation (gigaseal stability, viability); type: cell-based
Procedure: However, in several embodiments, other organic ligands coupled to other transition metals are also used, with reduced and/or non-existent adverse side effects. […] Excessive and prolonged whole cell incubation with RubpyC17 (e.g., >10 μM for >5 min) may result in cell toxicity, since a stable gigaseal cannot be stably maintained in those cells. At this time, the mechanism behind the adverse effects on cell health upon RubpyC17 overexposure is not yet fully known. Since perforation was not achieved when a small patch of membrane was exposed to a high dose of RupbyC17, it was hypothesized that when an entire cell is overexposed to RubpyC17, there may be sufficient random interactions between excess RubpyC17 complex and endogenous surface molecules (i.e., proteins, carbohydrates, sugars), triggering signals that lead to cell health deterioration. However, when used in its appropriate dose range (e.g., <about 10 μM for cell lines and <about 2 μM for primary cells, according to one embodiment), RubpyC17 is tolerated by cells and consistently confers light sensitivity.

INS cells = experiment: Whole cell patch clamp, current-clamp membrane potential under light; type: cell-based, rat; conditions: for light-induced increase of membrane potential: 488 nm
Procedure: Membrane potential was monitored using whole cell patch clamp in current-clamp mode. Cultured cells (INS and HEK293) were plated on a glass-bottomed culture dishes 1-3 days prior to recording. Cells were incubated in standard extracellular solution with or without 10 μM RubpyC17 compound for approximately 1.5-2 minutes, then washed and incubated with standard extracellular solution without additional supplementation, or with 2-5 mM ascorbate, 100 μM sodium ferrocyanide, or 100-200 μM potassium ferricyanide, as indicated. The chamber was transferred to the microscope stage. Extracellular solution consisted of 140 mM NaCl, 2.8 mM KCl, 10 mM HEPES, 1 mM MgCl2, 2 mM CaCl2, 10 mM glucose, pH adjusted to 7.3, and osmolarity adjusted to 300-310. Conventional whole-cell patch clamp recordings were performed with an EPC-9 amplifier and Pulse software (HEKA Electronics). Pipette electrodes of 1.8-3.5 Mohm were fire polished before use. Intracellular solution consisted of: 145 mM KCl, 10 mM NaCl, 1 mM MgCl2, 1 mM EGTA, 2 mM ATP, 0.3 mM GTP and 10 mM HEPES, pH adjusted to 7.3 and osmolarity adjusted to 290-300 mOsm. To monitor changes in membrane voltage/potential, cells were patch clamped in current-clamp mode. Access resistances were in the range of 3-8 Mohm. Using Pulse, membrane potentials were recorded before, during and after illumination by the argon ion laser at 488 nm with an irradiance value of 0.458 mE s^−1 m^−2 or by a xenon lamp source through a 470/40 nm bandpass excitation filter with an irradiance value of 0.480 mE s^−1 m^−2. The duration of illumination varied and the timing is indicated by bars on the figures.
Initial attempts were tied to INS and HEK cells, both cells that are not excitable under normal conditions (INS cells were maintained in low glucose <3 mM to prevent action potentials). The cells were incubated in 10 μM of RubpyC17 compound for approximately 2 minutes then washed with standard extracellular solution, supplemented with 2 mM ascorbate. It was hypothesized that when RubpyC17 is incorporated into the cell membrane, illumination would induce accumulation of negative charges at the outer face of the cell membrane, due to transfer of an electron from ascorbate to the photoactivated RubpyC17 resulting in membrane depolarization. To monitor the plasma membrane potential, the cells were patch-clamped in whole-cell configuration in current-clamp mode and membrane voltages were recorded while illuminating the cell at 488 nm (0.46-0.48 mE s^−1 m^−2), though other wavelengths are useful, depending on the embodiment.

[2] = test system: INS, HEK293T and chromaffin cells; experiment: Imaging RubpyC17 in live cells (membrane integration); type: cell-based, rat, human, mouse
Procedure: Cells were imaged at 1-3 days after plating. The glass-bottomed chambers with adherent cells were washed twice with PBS and then filled with standard extracellular solution consisting of 140 mM NaCl, 2.8 mM KCl: 10 mM HEPES, 1 mM MgCl2, 2 mM CaCl2, and 10 mM glucose, pH adjusted to 7.2-7.4 and osmolarity adjusted to 290-310 mOsm. The chamber was then mounted on an Olympus IX70 inverted microscope stage for imaging, using a Cascade 512B EMCCD camera, operated by Metamorph software. Initial imaging was done with, cells in extracellular solution without RubpyC17, first under brightfield to evaluate cell health and morphology, then under widefield argon ion laser illumination at 488 nm (Coherent, Innova 90-5, Santa Clara, Calif.), to evaluate autofluorescence. Next, the extracellular solution was removed and replaced with extracellular solution containing the RubpyC17 compound (10 μM in <0.01% DMSO, final concentrations). Cell images were then acquired with illumination at 488 nm (collected with a long-pass red emission filter). For electrophysiological experiments, RubpyC17 compound was added to the extracellular solution (2-10 μM in <0.01% DMSO, final concentrations as indicated) and cells were incubated for 1.5-45 min, as indicated, then washed with extracellular solution without RubpyC17. Some chromaffin cells were also exposed continuously to 490-900 nM RubpyC17-containing extracellular solution.
Illustrated here are rat insulinoma INS cells (see FIG. 17C, top), human embryonic kidney (HEK293T) cells (see FIG. 17C, middle), and primary cultured mouse chromaffin cells (see FIG. 17C, bottom). […] All cell types preserved morphology for at least 10 minutes. […] One embodiment of the possible light-induced electron transfer is depicted in FIG. 2.

## CCCCCCCCCCCCCCCCCc1ccnc(-c2cc(C)ccn2)c1.F[P-](F)(F)(F)(F)F.F[P-](F)(F)(F)(F)F.[Ru+2].c1ccc(-c2ccccn2)nc1.c1ccc(-c2ccccn2)nc1 [RubpyC17, [Ru(bpy)2(bpy-C17)](PF6)2]
[1]; cell lines
  dose range tolerated by cells: < 10 µM
[1]; chromaffin cells, ~30 min with RubpyC17
  viability after incubation: continued viability of chromaffin cells
[1]; for >5 min, stable gigaseal not maintained
  whole cell incubation concentration that may result in cell toxicity: > 10 µM
[1]; primary cells
  dose range tolerated by cells: < 2 µM
INS cells; 0.46-0.48 mE s−1 m2, FIGS. 18B-18F
  continuous illumination required to reach maximum light-triggered depolarization: ~30 s
INS cells; INS cells, 10 μM ~2 min, 2 mM ascorbate
  light-induced increase of membrane potential: 15.9 ± 4.6 mV
INS cells; INS cells, absence of ascorbate
  light-induced increase of membrane potential: 9.8 ± 4.5 mV
INS cells; INS cells, cesium and NMDG instead of potassium and sodium
  light-triggered depolarization with non-permeating ions: still persisted
INS cells; oxidants (ferricyanide) present, FIG. 18A
  illumination time at which cells undergo membrane potential change: ≥ 10 s
INS cells; presence of reductants
  reversibility of light-induced depolarization: appears to be irreversible
INS cells; reductants (ascorbate) present, INS and HEK293T (FIG. 18A)
  illumination time at which cells undergo membrane potential change: ≥ 25 s
[2]; 10 μM RubpyC17
  time for which all cell types preserved morphology: at least 10 minutes
[2]; 10 μM in bath, INS, HEK293T, mouse chromaffin cells
  incorporation into cell membranes (plasma membrane-localized luminescence): rapidly and stably incorporates into mammalian cell membranes
[2]; at 10 minutes after removal
  membrane luminescence after RubpyC17 removal from the bath solution: still observed
